Data published in patent publication US8779157B2, “MGLUR4 allosteric potentiators, compositions, and methods of treating neurological dysfunction” (Vanderbilt University, priority 2009, dated 2014).

molecular target: mGluR4 (UniProt Q14833); experiment: mGluR4 potentiation assay (fluorescence, Ca2+ or thallium/GIRK readout; EC20 agonist); assay type: cell-based, human / rat; details: half maximal effective concentration for mGluR4 potentiation; species of receptor not given
Method: The disclosed compounds and compositions can be evaluated for their ability to act as a potentiator of metabotropic glutamate receptor activity, in particular mGluR4 activity, by any suitable known methodology known in the art. For example, Chinese Hamster Ovary (CHO) cells transfected with human mGluR4 or HEK cells co-transfected with rat mGluR4 and the G-protein regulated Inwardly Rectifying Potassium channel (GIRK) were plated in clear bottom assay plates for assay in a Hamamatsu FDSS Fluorometric Plate Reader. The cells were loaded with either a Ca2+-sensitive fluorescent dye or the thallium responsive dye and the plates were washed and placed into a suitable kinetic plate reader. For human mGluR4 assays, a fluorescence baseline was established for 3-5 seconds, the disclosed compounds were then added to the cells, and the response in cells was measured. Approximately two and a half minutes later, a concentration of mGluR4 orthosteric agonist (e.g. glutamate or L-AP4) eliciting approximately 20% (EC20) of the maximal agonist response was added to the cells, and the response was measured. Two minutes later, a concentration of mGluR4 agonist (e.g. glutamate or L-AP4) eliciting 80% (EC80) of the maximal agonist response was added to the cells, and the response was measured. For rat mGluR4/GIRK experiments, a baseline was established for approximately five seconds, disclosed compounds were added, and either an EC20 or EC80 concentration of agonist was added approximately two and one half minutes later. Potentiation of the agonist response of mGluR4 by the disclosed compounds was observed as an increase in response to the EC20 concentration of agonist in the presence of compound compared to the response to agonist in the absence of compound. Similarly, antagonism of the agonist response of mGluR4 by the disclosed compounds was observed as a decrease in response to the EC80 concentration of agonist in the presence of compound compared to the response to agonist in the absence of compound.
The above described assay operated in two modes. In the first mode, a range of concentrations of the disclosed compounds are added to cells, followed by a single fixed concentration of agonist. If the compound acts as a potentiatior, an EC50 value for potentiation and a maximum extent of potentiation by the compound at this concentration of agonist is determined by non-linear curve fitting. If the compound acts as a noncompetitive antagonist, an IC50 value is determined by non-linear curve fitting. In the second mode, several fixed concentrations of the disclosed compounds are added to various wells on a plate, followed by a range in concentrations of agonist for each concentration of disclosed compound. The EC50 values for the agonist at each concentration of compound are determined by non-linear curve fitting. A decrease in the EC50 value of the agonist with increasing concentrations of the sample compound (a leftward shift of the agonist concentration-response curve) is an indication of the degree of mGluR4 potentiation at a given concentration of the sample compound. A decrease in the maximal response of the agonist with increasing concentrations of the sample compounds, with or without a rightward shift in agonist potency, is an indication of the degree of noncompetitive antagonism at mGluR4. The second mode also indicates whether the sample compounds also affect the maximum response to mGluR4 to agonists.

Row | EC50 [nM] | SMILES
1 | 217 | CN1C(=O)N(c2ccc(NC(=O)c3ccccn3)cc2Cl)C(=O)[C@]1(C)Cc1ccc(F)cc1 [Example 1.3.62, (S)-N-(3-chloro-4-(4-(4-fluorobenzyl)-3,4-dimethyl-2,5-dioxoimidazolidin-1-yl)phenyl)picolinamide]
2 | 1040 | COc1cc(NC(=O)c2ccccn2)ccc1N1C(=O)N[C@@](C)(Cc2ccc(F)cc2)C1=O [Example 1.3.63, (S)-N-(4-(4-(4-fluorobenzyl)-4-methyl-2,5-dioxoimidazolidin-1-yl)-3-methoxyphenyl)picolinamide]
3 | 197 | CN1C(=O)N(c2ccc(NC(=O)c3ccccn3)cc2Cl)C(=O)[C@]1(C)Cc1ccccc1 [Example 1.3.64, (S)-N-(4-(4-benzyl-3,4-dimethyl-2,5-dioxoimidazolidin-1-yl)-3-chlorophenyl)picolinamide]
4 | 236 | CCN1C(=O)N(c2ccc(NC(=O)c3ccccn3)cc2Cl)C(=O)[C@]1(C)Cc1ccccc1 [Example 1.3.65, (S)-N-(4-(4-benzyl-3-ethyl-4-methyl-2,5-dioxoimidazolidin-1-yl)-3-chlorophenyl)picolinamide]
5 | 2960 | C[C@@]1(Cc2ccccc2)NC(=O)N(c2ccc(NC(=O)c3ncc(F)cc3F)cc2Cl)C1=O [Example 1.3.66, (S)-N-(4-(4-benzyl-4-methyl-2,5-dioxoimidazolidin-1-yl)-3-chlorophenyl)-3,5-difluoropicolinamide]
6 | 6110 | C[C@@]1(Cc2ccccc2)NC(=O)N(c2ccc(NC(=O)c3nccs3)cc2Cl)C1=O [Example 1.3.67, (S)-N-(4-(4-benzyl-4-methyl-2,5-dioxoimidazolidin-1-yl)-3-chlorophenyl)thiazole-2-carboxamide]
7 | 5880 | COc1cccc(C(=O)Nc2ccc(N3C(=O)N[C@@](C)(Cc4ccccc4)C3=O)c(Cl)c2)n1 [Example 1.3.68, (S)-N-(4-(4-benzyl-4-methyl-2,5-dioxoimidazolidin-1-yl)-3-chlorophenyl)-6-methoxypicolinamide]
8 | 1630 | C[C@@]1(Cc2ccccc2)NC(=O)N(c2ccc(NC(=O)c3cccc(F)n3)cc2Cl)C1=O [Example 1.3.69, (S)-N-(4-(4-benzyl-4-methyl-2,5-dioxoimidazolidin-1-yl)-3-chlorophenyl)-6-fluoropicolinamide]
9 | 743 | O=C(Nc1ccc(N2C(=O)NC(C3CCCCC3)C2=O)c(Cl)c1)c1ccccn1 (centres unmarked) [Example 1.3.70, N-(3-chloro-4-(4-cyclohexyl-2,5-dioxoimidazolidin-1-yl)phenyl)picolinamide]
10 | 2230 | O=C(Nc1ccc(N2C(=O)C3CN(C4CCCCC4)CCN3C2=O)c(Cl)c1)c1ccccn1 (centres unmarked) [Example 1.3.71, N-(3-chloro-4-(7-cyclohexyl-1,3-dioxohexahydroimidazo[1,5-a]pyrazin-2(3H)-yl)phenyl)picolinamide]
11 | 4510 | CC(=O)N1CCN2C(=O)N(c3ccc(NC(=O)c4ccccn4)cc3Cl)C(=O)C2C1 (centres unmarked) [Example 1.3.72, N-(4-(7-acetyl-1,3-dioxohexahydroimidazo[1,5-a]pyrazin-2(3H)-yl)-3-chlorophenyl)picolinamide]
12 | 1070 | CC(C)(C)C(=O)N1CCN2C(=O)N(c3ccc(NC(=O)c4ccccn4)cc3Cl)C(=O)C2C1 (centres unmarked) [Example 1.3.73, N-(3-chloro-4-(1,3-dioxo-7-pivaloylhexahydroimidazo[1,5-a]pyrazin-2(3H)-yl)phenyl)picolinamide]
13 | 967 | O=C(Nc1ccc(N2C(=O)C3CN(C(=O)c4ccco4)CCN3C2=O)c(Cl)c1)c1ccccn1 (centres unmarked) [Example 1.3.74, N-(3-chloro-4-(7-(furan-2-carbonyl)-1,3-dioxohexahydroimidazo[1,5-a]pyrazin-2(3H)-yl)phenyl)picolinamide]
14 | 3260 | O=C(Nc1ccc(N2C(=O)C3CCCCN3C2=S)c(Cl)c1)c1cccc(Cl)n1 (centres unmarked) [Example 1.3.75, 6-chloro-N-(3-chloro-4-(1-oxo-3-thioxohexahydroimidazo[1,5-a]pyridin-2(3H)-yl)phenyl)picolinamide]
15 | 5040 | O=C(Nc1ccc(N2C(=O)C3CCCCN3C2=S)c(Cl)c1)c1cnccn1 (centres unmarked) [Example 1.3.76, N-(3-chloro-4-(1-oxo-3-thioxohexahydroimidazo[1,5-a]pyridin-2(3H)-yl)phenyl)pyrazine-2-carboxamide]
16 | 2780 | O=C(Nc1ccc(N2C(=O)C3CCCCN3C2=S)c(Cl)c1)c1cccs1 (centres unmarked) [Example 1.3.77, N-(3-chloro-4-(1-oxo-3-thioxohexahydroimidazo[1,5-a]pyridin-2(3H)-yl)phenyl)thiophene-2-carboxamide]
17 | 1790 | O=C(Nc1ccc(N2C(=O)C3CCCCN3C2=S)c(Cl)c1)c1ccsc1 (centres unmarked) [Example 1.3.78, N-(3-chloro-4-(1-oxo-3-thioxohexahydroimidazo[1,5-a]pyridin-2(3H)-yl)phenyl)thiophene-3-carboxamide]
18 | 1340 | O=C(Nc1ccc(N2C(=O)C3CCCCN3C2=S)c(Cl)c1)c1nccs1 (centres unmarked) [Example 1.3.79, N-(3-chloro-4-(1-oxo-3-thioxohexahydroimidazo[1,5-a]pyridin-2(3H)-yl)phenyl)thiazole-2-carboxamide]
19 | 1970 | O=C(Nc1ccc(N2C(=O)C3CCCCN3C2=S)c(Cl)c1)c1cscn1 (centres unmarked) [Example 1.3.80, N-(3-chloro-4-(1-oxo-3-thioxohexahydroimidazo[1,5-a]pyridin-2(3H)-yl)phenyl)thiazole-4-carboxamide]
20 | 876 | O=C(Nc1ccc(N2C(=O)C3CCCCN3C2=S)c(Cl)c1)c1ncc(F)cc1F (centres unmarked) [Example 1.3.81, N-(3-chloro-4-(1-oxo-3-thioxohexahydroimidazo[1,5-a]pyridin-2(3H)-yl)phenyl)-3,5-difluoropicolinamide]
21 | 354 | O=C(Nc1ccc(N2C(=O)C3CCCCN3C2=S)c(Cl)c1)c1cccc(F)n1 (centres unmarked) [Example 1.3.83, N-(3-chloro-4-(1-oxo-3-thioxohexahydroimidazo[1,5-a]pyridin-2(3H)-yl)phenyl)-6-fluoropicolinamide]
22 | 993 | O=C(Nc1ccc(N2C(=O)C3CCCCN3C2=S)c(Cl)c1)c1ncccc1F (centres unmarked) [Example 1.3.84, N-(3-chloro-4-(1-oxo-3-thioxohexahydroimidazo[1,5-a]pyridin-2(3H)-yl)phenyl)-3-fluoropicolinamide]
23 | 864 | CC12CCCCN1C(=O)N(c1ccc(NC(=O)c3cccc(Cl)n3)cc1Cl)C2=O (centres unmarked) [Example 1.3.85, 6-chloro-N-(3-chloro-4-(8a-methyl-1,3-dioxohexahydroimidazo[1,5-a]pyridin-2(3H)-yl)phenyl)picolinamide]
24 | 1630 | CC12CCCCN1C(=O)N(c1ccc(NC(=O)c3nccs3)cc1Cl)C2=O (centres unmarked) [Example 1.3.86, N-(3-chloro-4-(8a-methyl-1,3-dioxohexahydroimidazo[1,5-a]pyridin-2(3H)-yl)phenyl)thiazole-2-carboxamide]
25 | 2670 | CC12CCCCN1C(=O)N(c1ccc(NC(=O)c3cscn3)cc1Cl)C2=O (centres unmarked) [Example 1.3.87, N-(3-chloro-4-(8a-methyl-1,3-dioxohexahydroimidazo[1,5-a]pyridin-2(3H)-yl)phenyl)thiazole-4-carboxamide]

Row | SMILES | EC50 [nM]
26 | O=C(Nc1ccc(N2C(=O)C3CCCCN3C2=S)c(Cl)c1)c1ccc(Cl)o1 (centres unmarked) [Example 1.3.82, 5-chloro-N-(3-chloro-4-(1-oxo-3-thioxohexahydroimidazo[1,5-a]pyridin-2(3H)-yl)phenyl)furan-2-carboxamide] | 2850
